Counter-ions that a name gives are not always drawn.
Key:
[1] = test system: IFN production by activated immune cells (PBMC); assay: IFN production by R848-activated PBMC from healthy donors, STING-37 reporter cell line; assay type: cell-based, human; conditions: different concentrations, R848, STING-37 reporter, FIG. 1
Method: 1) The blood from healthy donors was obtained from two sources. Either from “Etablissement Français du Sang” (convention #07/CABANEL/106), Paris, France or from the Apheresis and Blood Donation Unit at the Institute of Transfusion Medicine and Immunogenetics (IKT), Ulm, Germany after being approved by the Institutional Review Board at Ulm University.
(§1) In vitro experiments were performed using human peripheral blood mononuclear cells (PBMCs) isolated by density centrifugation from peripheral blood leukocyte separation medium (Cambrex, Gaithersburg, Md.).
(§2) PBMCs were cultured in RPMI 1640 (Invitrogen, Gaithersburg, Md.) (R10) containing 10% heat-inactivated fetal bovine serum, 100 U/mL Penicilium and 100 μg/mL Streptomycin (1% Pen-Strep) and 1 mM glutamine (Hyclone, Logan, Utah).
1) The PBMCs used herein were prepared as described in part A “immune cells preparation”, section 1) above. PBMCs were seeded at 2.10^6/mL. […]
(§3) 1) To quantify the secretion of functional IFN, a biological assay based on a stable cell line where luciferase reporter gene is controlled by five Interferon-Stimulated Response Elements (STING37 cell line) was used. […] After 24 h of culture, luciferase activity was determined by adding 50 μL of Bright-Glo reagents (Promega) to culture wells and measuring bioluminescence with a luminometer.

[2] = test system: IFN production by activated immune cells (PBMC) from lupus patients; assay: IFN production by R848-activated PBMC from lupus patients, STING-37 reporter cell line; assay type: cell-based, human; conditions: 10 μM, PBMC from three SLE patients, FIG. 2
Method: (§4) Material from Juvenile Dermatomyositis and Lupus patients were obtained from Necker Hospital, Paris, France or from Imagine Institute, Paris, France. The study was approved by the Conité des Protection des Personnes (ID-RCB/EUDRACT: 2014-A01017-40 and 2018-A01358-47) in France.
as §1, §2
1) The PBMCs used herein were prepared as described in part A “immune cells preparation”, section 1) above. PBMCs were seeded at 2.10^6/mL. […] Cells were then stimulated with the TLR7/8 agonist resiquimod—R848 (Invivogen) at 5 μg/mL. […]
as §3

[3] = test system: TNFα production by monocytes (CD14+ cells); assay: TNFα production by monocytes from juvenile dermatomyositis patients, intracellular staining by flow cytometry; assay type: cell-based, human; conditions: PBMCs from 2 juvenile dermatomyositis patients; R848 overnight; FIG. 3
Method: as §4, §1
(§5) 1) The PBMCs used herein were prepared as described in part A “immune cells preparation”, section 1) above. PBMCs were seeded at 2.10^6/mL. […] Cells were then stimulated with the TLR7/8 agonist resiquimod—R848 (Invivogen) at 5 μg/mL. When stated, AMD (20 μM) (Sigma-Aldrich, MO, USA) was added to the cells 1 h before incubation with example 1.
R848-stimulated PBMCs were washed in PBS and then incubated with a viability stain (Zombie-Aqua, Biolegend) for 30 min at 4° C. After washing, the cells were resuspended in PBS containing 2% FCS and 2 mM EDTA and stained with the extracellular mix using APC-anti-BDCA4 (clone 12C2), FITC-anti-CD123 (clone 6H6), PerCP.cy5.5-anti-CD56 (clone 5.1H11), BV421-anti-HLADR (clone L243), PE.cy7-anti-CD19 (clone 4G7), APC-cy.7-anti-CD14 (clone M5E2) all from Biolegend and used at 1/200 and V500-anti-CD3 (BD Bioscience, clone SP34-2, 1/200). […]

[4] = test system: TNFα production by monocytes (CD14+ cells); assay: Requirement of CXCR4 (siRNA knockdown or AMD3100) for the effect on TNFα production by monocytes from healthy donors; assay type: cell-based, human
Method: Monocytes were purified from PBMCs by positive selection with the CD14 microbeads (Miltenyi Biotec) and MACS column.
as §5
Isolated monocytes were seeded at 10^5 cells/100 μL in 96-well plates and incubated at 37° C. Cyclophilin B (control) and CXCR4 small interfering RNA (siRNA) (Smart Pool, Dharmarcon) was diluted in DOTAP (Roche Applied Sciences). The mix was gently mixed and incubated at room temperature for 15 minutes. After incubation, the mix was added to cells in culture at a final concentration of 160 nM. Finally, cells were incubated at 37° C. for 24 hours before stimulation.
R848-stimulated PBMCs were washed in PBS and then incubated with a viability stain (Zombie-Aqua, Biolegend) for 30 min at 4° C. After washing, the cells were resuspended in PBS containing 2% FCS and 2 mM EDTA and stained with the extracellular mix using APC-anti-BDCA4 (clone 12C2), FITC-anti-CD123 (clone 6H6), PerCP.cy5.5-anti-CD56 (clone 5.1H11), BV421-anti-HLADR (clone L243), PE.cy7-anti-CD19 (clone 4G7), APC-cy.7-anti-CD14 (clone M5E2) all from Biolegend and used at 1/200 and V500-anti-CD3 (BD Bioscience, clone SP34-2, 1/200). For the TNFα intracellular staining a Fixation/Permeabilization Solution Kit (BD Cytofix/Cytoperm) was used according to the manufacturer's protocol. Briefly, the cells were fixed for 10 min at 4° C. with 100 μL of the Fixation/Permeabilization solution then washed and stained in 100 μL of the BD Perm/Wash Buffer containing TNFα-APC (Miltenyi, 1/500) antibody for 1 h at 4° C. Data acquisition was performed on a Canto II flow cytometer using Diva software (BD Biosciences, San Jose, Calif.). FlowJo software (Treestar, Ashland, Oreg.) was used to analyze data.

[5] = biological target: T1, human CXCR4 (hCXCR4) receptor (Homo sapiens, UniProt P61073); assay: BRET assay of antagonist activity on the CXCR4-CXCL12 signaling pathway in transfected HEK-293 T cells; assay type: cell-based; conditions: Gαi1, Gαi2, Gαi3, GαoB or Gαz, EC80 CXCL12, FIG. 6
T1 construct: expressed in transfected cells; host or cells: HEK-293 T cells, transient co-transfection with polyethylenimine
Method: Examples of the present invention were tested for their antagonist activity on human CXCR4 (hCXCR4) receptor transiently over-expressed in HEK-293 T cells. Compounds exert antagonist activity if they decrease the action of CXCL12 on the receptor.
HEK-293 T cells are maintained in Dulbecco's Modified Eagle's Medium supplemented with 10% Foetal Calf Serum, 1% Penicillin/Streptomycin at 37° C./5% CO2. […] After transfection, cells are cultured for 48 h at 37° C./5% CO2.
On the day of the assay, cells are detached using trypsin 0.05%, resuspended in assay buffer (1.8 mM CaCl2, 1 mM MgCl2, 2.7 mM KCl, 137 mM NaCl, 0.4 mM NaH2PO4, 5.5 mM D-Glucose, 11.9 mM NaHCO3, 25 mM Hepes) and seeded in 384 well plate at a density of 20,000 cells per well.
Cells are first incubated for 10 minutes with the compound alone. Then, cells are stimulated by an EC80 CXCL12 concentration for additional 10 minutes and luminescence is recorded. […] Antagonist activity is evaluated in comparison to basal signals evoked by EC80 CXCL12 alone.
For IC50 determination, a dose-response test is performed using 20 concentrations (ranging over 6 logs) of each compound. Dose-response curves are fitted using the sigmoidal dose-response (variable slope) analysis in GraphPad Prism software (GraphPad Software) and IC50 of antagonist activity is calculated. […]

[6] = test system: IFN production by activated PBMCs; assay: IFN production by R848-activated PBMCs from healthy donors, twINNE reporter cell line; assay type: cell-based, human; conditions: means of two results over 2 healthy donors, R848 5 μg/mL, IT1t: mean over all experiments, read-out: IC50 of anti-inflammatory activity (IFN production)
Outline: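 Human PBMCs (4.10^6/mL, RPMI/10% FBS, 37° C) stimulated with R848 at 5 μg/mL; supernatants collected after 24 h. Functional IFN measured on twINNE cells (ISRE-driven luciferase reporter) after 24 h culture by bioluminescence; IC50 from variable-slope dose-response fits.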

[7] = test system: IL-1β; assay: Cytokine production by R848-activated PBMCs, LEGENDplex Human Inflammation panel 1: IL-1β; assay type: cell-based; conditions: PBMCs from 2 healthy donors, R848 overnight, read-out: IC50 (μM) 1L-1β
Method: (§6) 2) The PBMCs used herein were prepared as described in part A “immune cells preparation”, section 2) above. PBMCs were seeded at 4.10^6/mL. […] Cells were then stimulated with the TLR7/8 agonist resiquimod—R848 (Sigma-Aldrich, MO, USA) at 5 μg/mL.
(§7) Cytokine expression levels were assessed using LEGENDplex Human inflammation panel 1 Kit (BioLegend, California, USA), which is a bead-based multiplex assay, using fluorescence-encoded beads. […] First, supernatants of R848-stimulated PBMCs were harvested after 24 h of stimulation and frozen at −20° C. for storage. Supernatants were dispensed into a 96-well V-bottom plate. Protocol pursued as per manufacturer recommendations (Manual for BioLegend LEGENDplex, Multi-Analyte Flow Assay Kit, Human Inflammation Panel 1, version 750000393_R01).

[8] = test system: IFN-γ; assay: Cytokine production by R848-activated PBMCs, LEGENDplex Human Inflammation panel 1: IFN-γ; assay type: cell-based; conditions: PBMCs from 2 healthy donors, R848 overnight
Method: as §6, §7

[9] = test system: TNF-α; assay: Cytokine production by R848-activated PBMCs, LEGENDplex Human Inflammation panel 1: TNF-α; assay type: cell-based; conditions: PBMCs from 2 healthy donors, R848 overnight
Method: as §6, §7

[10] = test system: IL-10; assay: Cytokine production by R848-activated PBMCs, LEGENDplex Human Inflammation panel 1: IL-10; assay type: cell-based; conditions: PBMCs from 2 healthy donors, R848 overnight
Method: as §6, §7

[11] = test system: IL-12p70; assay: Cytokine production by R848-activated PBMCs, LEGENDplex Human Inflammation panel 1: IL-12p70; assay type: cell-based; conditions: PBMCs from 2 healthy donors, R848 overnight
Method: as §6, §7

[12] = test system: IL-18; assay: Cytokine production by R848-activated PBMCs, LEGENDplex Human Inflammation panel 1: IL-18; assay type: cell-based; conditions: PBMCs from 2 healthy donors, R848 overnight
Method: as §6, §7

[13] = test system: IL-23; assay: Cytokine production by R848-activated PBMCs, LEGENDplex Human Inflammation panel 1: IL-23; assay type: cell-based; conditions: PBMCs from 2 healthy donors, R848 overnight
Method: as §6, §7

[14] = test system: MCP-1, IL-6, IL-8 and IL-33; assay: Cytokine production by R848-activated PBMCs, LEGENDplex: other inflammatory cytokines; assay type: cell-based, human; conditions: PBMCs from two healthy donors; R848 5 μg/mL
Method: as §6, §7

T1 sequence (P61073 whole entry): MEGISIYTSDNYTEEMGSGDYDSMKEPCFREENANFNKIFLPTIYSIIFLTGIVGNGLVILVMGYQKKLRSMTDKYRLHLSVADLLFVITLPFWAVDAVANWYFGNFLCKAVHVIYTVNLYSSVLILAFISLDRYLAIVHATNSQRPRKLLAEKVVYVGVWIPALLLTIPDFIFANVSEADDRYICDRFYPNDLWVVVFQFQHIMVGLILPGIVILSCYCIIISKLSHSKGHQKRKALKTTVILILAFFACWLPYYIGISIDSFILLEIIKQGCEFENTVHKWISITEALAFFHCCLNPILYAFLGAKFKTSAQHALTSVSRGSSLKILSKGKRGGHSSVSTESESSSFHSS

SMILES	reduction of IFN production by activated PBMCs [1] [%]	IFN production by activated PBMCs [2]	TNF-α production in CD14+ monocytes [3]	TNFα production by activated monocytes in the presence of the example after pre-incubation with AMD3100 ([4]; AMD3100 20 μM 1 h, example 1 5 μM or example 2 1 μM, R848, FIG. 5B)	TNFα production by activated monocytes in the presence of the example after CXCR4 siRNA ([4]; siCXCR4 160 nM 24 h, example 1 5 μM, R848, FIG. 5A)	antagonist activity: recruitment of G proteins induced by the hCXCR4-CXCL12 interaction [5]	IC50 [6] [µM]	IC50 [7] [µM]	IC50 [8] [µM]	IC50 [9] [µM]	IC50 [10] [µM]	IC50 [11] [µM]	IC50 [12] [µM]	IC50 [13] [µM]	inhibition on other inflammatory cytokines such as MCP-1, IL-6, IL-8 and IL-33 [14]
CC1(C)CN2C(CSC3=NC4CCCCC4N3)=CSC2=N1 (stereo not drawn) [Example 1, 3-(((3a,4,5,6,7,7a-hexahydro-1H-benzo[d]imidazol-2-yl)thio)methyl)-6,6-dimethyl-5,6-dihydroimidazo[2,1-b]thiazole dihydrochloride]	100	level similar to the one of unstimulated negative controls	strongly inhibited	restored	restored	significantly lower than IT1t									
CC1(C)CN2C(CSC(=NC3CCCCC3)NC3CCCCC3)=CSC2=N1 [IT1t, reference compound]							31	38	24	48	20	16	9.7	14	no or poor inhibition

From patent US20220144853A1, “IMIDAZOLINE DERIVATIVES AS CXCR4 MODULATORS” (Université de Paris, priority 2019, published 2022)
